Ends that are not written are not given here.
Key:
Cytotoxicity assay = type: cell-based, canine; conditions: dog, MDCK cells, read-out: CC50 (cytotoxic concentration 50%)
Method: To establish the maximal non-cytotoxic dose of bLf and its derivatives, two-fold serial dilutions of each substance in culture medium were incubated at 37° C. with confluent MDCK cells grown in 96-well tissue culture microplates (Nalge Europe Ltd, Neerijse, Belgium). After 24 h, the following parameters were evaluated: cell morphology and viability (determined by neutral red staining) were examined by light microscopy and cell proliferation was evaluated quantitatively by microscopic counts after dispersion into individual cells with trypsin.

A/Roma-ISS/2/08 H1N1 = conditions: read-out: EC50 (effective concentration 50%); A/Roma-ISS/2/08 H1N1, MDCK cells
A/Parma/05/06 H3N2 = conditions: read-out: EC50 (effective concentration 50%); A/Parma/05/06 H3N2, MDCK cells
A/Parma/24/09 H1N1 = conditions: read-out: EC50 (effective concentration 50%); A/Parma/24/09 H1N1, MDCK cells
Peptide stability = type: physicochemical

Sequence	CC50 at 24 h (Cytotoxicity assay)	EC50 (A/Roma-ISS/2/08 H1N1)	EC50 (A/Parma/05/06 H3N2)	EC50 (A/Parma/24/09 H1N1)	stability of the peptide (in words) (Peptide stability)
AGDDQGLDKCVPNSKEK [SEQ ID NO: 2, AGDDQGLDKCVPNSKEK]	> 25000 nM	0.0037 nM	0.0073 nM	0.0034 nM	–
SKHSSLDCVLRP [SEQ ID NO: 1, SKHSSLDCVLRP]	> 25000 nM	0.004 nM	0.0058 nM	0.0031 nM	–
NGESTADWAKN (bovine lactoferrin peptide from 553 aa to 563 aa) [SEQ ID NO: 3, bLf C-lobe peptide, residues 553-563]	–	–	–	–	poor stability
NGESSADWAKN [SEQ ID NO: 4, NGESSADWAKN]	> 25000 nM	–	0.0225 nM	–	–
